# Entries after “also recorded” stand apart in the source; their conditions may differ.
# What was measured:
# C57BL/6J mice [1] = experiment: rotarod test, motor coordination, mice; format: in vivo, mouse; conditions: CYM-5442; male C57BL/6J mice
# Protocol: (§1) Effect of CYM-5442 on motor coordination was evaluated in male and female C57NBL/6J mice and male Wistar rats in the rotarod apparatus (Rotamex-5, Columbus Instruments, USA). Briefly, one week before testing, animals were extensively habituated to handling and intraperitoneal injections. On test day, animals were weighed and allocated into the four experimental groups. CYM-5442 or vehicle were injected intraperitoneally 60 min before the start of the first trial. Each subject underwent 3 trials of 300 s (intertrial interval 60 s) with a rotarod acceleration from 4 to 40 rpm. Trials in which animals fell before 5 s, calculated from the beginning of the trial, were repeated. For each animal, the latency to fall was assessed and expressed as the average values over the 3 trials.
# C57BL/6J mice [2] = experiment: acute food intake in 4 h sessions (CLAMS); format: in vivo, mouse; conditions: vs 0 mg/kg
# Protocol: The acute effect of CYM-5442 on food intake was measured in 4 h sessions. CYM-5442 was administered 1 h before the sessions. CYM-5442 reduced food intake in a dose-dependent manner at the doses of 2.5 and 5 mg/Kg in the first 2 h (FIG. 7A) and at the dose of 5 mg/kg after 4 h (FIG. 7B).
# (§2) Effect of CYM-5442 was evaluated on food (g) and water intake (ml) and respiratory exchange ratio (RER: VCO2/VO2) of male C57BL/6J mice (n=30) allocated into CLAMS (Comprehensive Lab Animal Monitoring System, Columbus Instruments, Columbus, OH USA) chambers. After 1-week acclimatization, on test day, mice were removed from the metabolic chambers, injected with CYM-5442 60 min before 3 h into the dark of the light/dark cycle and then placed back into the chambers. Food, water intake and RER were monitored starting the 1st to the 12th h of the dark phase of the light/dark cycle.
# C57BL/6J mice [3] = experiment: loss of righting reflex (LORR), sensitivity to alcohol's hypnotic action; format: in vivo, mouse
# C57BL/6J mice [4] = experiment: body composition by quantitative nuclear magnetic resonance (qNMR) after chronic treatment; format: in vivo, mouse; conditions: chronic CYM-5442 2.5 mg/kg i.p.
# Protocol: (§3) The effect of chronic daily administration of CYM-5442 on body weight and body fat content was tested in mice fed either a low-fat diet (LFD; D12450K, 10 kcal % Fat, Research Diets, Inc. NJ, US) or a high-fat diet (HFD; D07011903, 45 kcal % Fat) ad libitum. Mice were treated with CYM-5442 (2.5 mg/kg, i.p.) or vehicle 5 days a week over 7 consecutive weeks. […] This is consistent with the moderate half-life of the drug that allows adlibitum fed mice to eat through the day. This finding supports that the metabolic effect of CYM-5442 of increased fat utilization or lipolysis is independent of reduction of food intake.
# Body composition was determined with a quantitative nuclear magnetic resonance instrument (qNMR, Echo MRI, Houston, TX).
# Wistar rats [5] = experiment: rotarod test, motor coordination, rats; format: in vivo, rat; conditions: CYM-5442 5 mg/kg; male Wistar rats
# Protocol: as §1
# C57BL/6J mice [6] = experiment: respiratory exchange ratio (RER) by indirect calorimetry (CLAMS); format: in vivo, mouse
# Protocol: The effect of CYM-5442 on energy metabolism was tested by indirect calorimetry with the Comprehensive Lab Animal Monitoring System (CLAMS; Columbus Instruments, Columbus, OH USA). After 1-week acclimatization, on test day, mice were removed from metabolic chambers, injected with CYM-5442 3 h into the dark phase of the light/dark cycle and then placed back into chambers. […] The RER indicates the energy source the organism uses over the day. It is typically measured on a scale from 0.7 to 1.
# as §2
# [7] = in words only; cited from earlier work
# C57BL/6J mice [8] = experiment: chronic treatment of LFD- or HFD-fed mice: body weight, food and water intake; format: in vivo, mouse
# Protocol: as §3
# Wistar rats [9] = experiment: intravenous methamphetamine self-administration (FR1 and progressive ratio); format: in vivo, rat; conditions: CYM-5442 5 mg/kg i.p., male Wistar rats, vs vehicle
# Protocol: The effect of CYM-5442 was tested on methamphetamine self-administering rats. Male Wistar rats were aseptically implanted with chronic silastic catheters in the right jugular vein and were trained to self-administer methamphetamine (1 h/day at a dose of 0.05 mg/kg/infusion). Rats were trained to self-administer methamphetamine under a fixed-ratio 1 schedule of reinforcement (FR1) whereby one lever press results in the delivery of one methamphetamine infusion (0.05 mg/kg) under 1-h daily sessions.
# Male Wistar rats were aseptically implanted with intravenous catheters in the right jugular vein under deep isoflurane anesthesia as previously described in Ahmed et al. (Proc Natl Acad Sci USA 102:11533-8). At the time of testing, the rats' body weights ranged between 350 and 400 g.
# Self-administration was performed in operant conditioning chambers (Med Associates, St. Albans, VT, USA) that were enclosed in lit, sound-attenuating, ventilated environmental cubicles. Methamphetamine was delivered through plastic catheter tubing that was connected to an infusion pump. The infusion pump was activated by responses on the right (active) lever. […] A computer controlled fluid delivery and behavioral data recording. All of the rats were tested for methamphetamine self-administration on a continuous reinforcement (fixed ratio 1, FR1) schedule. […] A 20-s timeout (TO) period followed each METH infusion. […]
# C57BL/6J mice [10] = experiment: saccharin consumption in the DID paradigm; format: in vivo, mouse; conditions: CYM-5442 5 mg/kg i.p., male C57BL/6J mice, first 2 h and 4 h
# Excerpt: An identical experimental plan was adopted to evaluate acute effects of CYM-5442 on the no-drugs reinforcer saccharin (0.002% w/v). Independent groups of C57BL/6J mice were used for testing the effect of CYM-5442 on saccharin intake.
# C57BL/6J mice [11] = experiment: drinking in the dark (DID) binge drinking paradigm, alcohol intake; format: in vivo, mouse; conditions: for alcohol consumption in the DID paradigm over a 4 h drinking session: first 2 h and 4 h
# Protocol: The S1P agonists fingolimod (1, 2, and 4 mg/kg), ozanimod (0.25, 0.5, and 1 mg/kg) and CYM-5442 (1.25, 2.5, and 5 mg/kg) (Tocris, Minneapolis, MN, USA) were suspended in saline with 1% (w/v) Tween 80 and administered intraperitoneally (i.p.) (injection volume in mice 10 ml/kg, in rats 2 ml/kg). Pretreatment time was 30 min for fingolimod and ozanimod, while CYM-5442 was injected 60 min before each behavioral experiment.
# Acute effect of the S1P agonists was tested in alcohol binge-like drinking in male and female C57BL/6J mice exposed to the drinking in the dark paradigm. As described by Rhodes and colleagues (Rhodes et al. Physiol Behav 84:53-63, 2005; Thiele et al. Alcohol 48:235-41, 2014) 3 h after lights go off, the water bottle of single-housed mice was replaced with a bottle containing 20% (v/v) alcohol and left in place for 2 h, over three consecutive days during which mice stabilized alcohol drinking. […] Over the experiment, the amount of alcohol consumed by mice was measured by weighing (0.01 g accuracy) the bottle immediately before and after each drinking session. Alcohol consumption was expressed as grams of pure alcohol per kilogram of body weight (g/kg). In addition, at the end of the second 2 h drinking session, blood samples were collected from the tip of the tail of each mouse and BALs were measured.
# [12] = rotarod test, motor impairment by S1P receptor agonists (fingolimod); conditions: in vivo
# body weight (fingolimod) = conditions: in vivo
# [13] = tested on: mice with degenerative and inflammatory conditions; conditions: cited from earlier work
# MeCP2^308/Y mice = experiment: DID paradigm in low drinking MeCP2^308/Y mice, alcohol intake and BALs; format: in vivo, mouse; conditions: PF-543 10 mg/kg i.p., 30 min before the drinking session
# [14] = CYM-5442 2.5 mg/kg i.p. chronic, HFD-fed or LFD-fed mice, vs vehicle
smiles,measurement,setting,value
CCOc1ccc(-c2nc(-c3cccc4c3CCC4NCCO)no2)cc1OCC (centres unmarked) [CYM-5442],"motor coordination performance in the rotarod apparatus (latency to fall, active run time)",C57BL/6J mice [1],did not affect; also recorded: does not alter
same,food-intake during the 1st 2-hrs,C57BL/6J mice [2]; CYM-5442 2.5 mg/kg and 5 mg/kg,significantly reduced
same,food-intake over the entire 4-hrs session,C57BL/6J mice [2]; CYM-5442 5 mg/kg,reduced
same,duration of loss of righting reflex (LORR),"C57BL/6J mice [3]; CYM-5442 2.5 mg/kg i.p., alcohol 3.5 g/kg, male C57BL/6J mice",significantly increases
same,body fat in the low-fat diet (LFD)-fed control group (reduction),C57BL/6J mice [4],not
same,lean body mass,C57BL/6J mice [4],without affecting
same,body fat in the HFD-fed group,"C57BL/6J mice [4]; vs vehicle in HFD, 2.5 mg/kg",significantly reduced
same,motor coordination in the rotarod apparatus,Wistar rats [5],did not affect
same,"Respiratory Exchange Ratio (RER), time course","C57BL/6J mice [6]; CYM-5442 i.p. 1.25, 2.5, 5 mg/kg, for 1-3 hours, dose-dependent",significantly lower; also recorded: significantly reduced
same,"RER, average of 2 hours, first 2 hrs measure point (1-3 hrs after injection)","C57BL/6J mice [6]; CYM-5442 i.p., 0 mg/kg vs 5 mg/kg",significantly reduced
same,half-life (circulating),[7],longer; also recorded: moderate
same,overall daily (24 h) food intake,C57BL/6J mice [8]; [14],did not differ
same,overall daily (24 h) water intake,C57BL/6J mice [8]; [14],did not differ
same,body weight gain in HFD-fed mice,"C57BL/6J mice [8]; CYM-5442 2.5 mg/kg i.p. daily, 5 days a week over 7 weeks, vs vehicle-treated HFD-fed mice",effectively prevented
same,"lever-responding for methamphetamine, fixed-ratio 1 (FR1), 1-h self-administration session",Wistar rats [9]; acute,significantly reduced
same,"methamphetamine self-administration under progressive ratio (PR) schedule, break point",Wistar rats [9],significantly reduced; also recorded: lower
same,saccharin [0.002% (w/v)] consumption in the DID paradigm over a 4 h drinking session,C57BL/6J mice [10],reduces
same,alcohol consumption in the DID paradigm over a 4 h drinking session,"C57BL/6J mice [11]; CYM-5442 2.5, 5 mg/kg i.p., male C57BL/6J mice",reduces
CCCCCCCCc1ccc(CCC(N)(CO)CO)cc1 [fingolimod],"motor impairment, performance in the rotarod test",[12],did not impair
same,body weight,body weight (fingolimod),did not affect
same,half-life (circulating),[7],longer
same,motor deficits,[13],ameliorated
same,alcohol consumption in the DID paradigm over a 4 h drinking session,"C57BL/6J mice [11]; fingolimod 4 mg/kg i.p., C57BL/6J mice",reduced
"CC(C)Oc1ccc(-c2nc(-c3cccc4c3CC[C@@H]4NCCO)no2)cc1C#N [ozanimod, Ozanimod (RPC1063)]",duration of loss of righting reflex (LORR),"C57BL/6J mice [3]; ozanimod 0.1 and 0.3 mg/kg i.p., C57BL/6J mice",significantly increased
same,half-life (circulating),[7],short
same,motor deficits,[13],ameliorated
same,alcohol consumption at the end of the 4-h drinking session (reducing effect),"C57BL/6J mice [11]; ozanimod 0.25-1 mg/kg i.p., C57BL/6J mice, 4 h, p>0.05",not evident
same,alcohol consumption in the DID paradigm after 2 h,"C57BL/6J mice [11]; ozanimod 0.25-1 mg/kg i.p., C57BL/6J mice, first 2 h, p<0.05",reduced
Cc1cc(CS(=O)(=O)c2ccccc2)cc(OCc2ccc(CN3CCC[C@@H]3CO)cc2)c1 [PF-543],alcohol consumption of MeCP2^308/Y mice in the DID paradigm,MeCP2^308/Y mice,increased

# Reference: patent US20250144081A1, “METHODS FOR REDUCING ALCOHOL, DRUG, AND FOOD INTAKE” (The Scripps Research Institute, priority 2022, published 2025)
